Values of other authors in PubChem BioAssay AID1259409 (Chemical Carcinogenesis Research Information System (CCRIS), 2018).

Test system: rodent chemically induced tumor inhibition, incidence and multiplicity
Test: CCRIS tumor inhibitor studies
Settings: Carcinogen: DIETHYLNITROSAMINE, 55-18-5, N-METHYLNITROSOUREA, 684-93-5, 1,2-DIMETHYLHYDRAZINE, 540-73-8, Carcinogen: DIETHYLNITROSAMINE, 55-18-5, N-METHYLNITROSOUREA, 684-93-5, 1,2-DIMETHYLHYDRAZINE, 540-73-8, Dose [Inhibitor]: 0, Route [Inhibitor]: ORAL, Species: RAT, Strain/Sex: F344/MALE, Dose [Carcinogen]: 100 MG/KG DEN ONCE, 20 MG/KG MNU 4 TIMES, 40 MG/KG DMH 4 TIMES, 0.05% BBN IN DRINKING WATER FOR 2 WK, 0.1% DHPN IN D, Dose [Carcinogen]: 100 MG/KG DEN ONCE, 20 MG/KG MNU 4 TIMES, 40 MG/KG DMH 4 TIMES, 0.05% BBN IN DRINKING WATER FOR 2 WK, 0.1% DHPN IN D, Promoter: NONE USED

**Q.** Which “tumour outcome (control, treated, inhibition, significance)” value (N-BUTYL-N-(4-HYDROXYB, N-BUTYL-N-(4-HYDROXYB, 1% IN DIET FOR 4 WK BEGINNING 1 DAY PRIOR TO CARCINOGEN TREATMENT (STUDY DURATION: 36 WK), Target Tissue: Type of Lesion: KIDNEY: ADENOMA) does the source give for `COc1cc(C=O)ccc1O` here?
**A.** 4/14 (29%), 4/15 (27%), 7%, not significant

**Q.** And the “tumour outcome (control, treated, inhibition, significance)” value (N-BUTYL-N-(4-HYDROXYB, N-BUTYL-N-(4-HYDROXYB, 1% IN DIET FOR 4 WK BEGINNING 1 DAY PRIOR TO CARCINOGEN TREATMENT (STUDY DURATION: 36 WK), Target Tissue: Type of Lesion: KIDNEY: NEPHROBLASTOMA)?
**A.** 7/14 (50%), 8/15 (53%), -6%, not significant

**Q.** And the “tumour outcome (control, treated, inhibition, significance)” value (N-BUTYL-N-(4-HYDROXYB, N-BUTYL-N-(4-HYDROXYB, 1% IN DIET FOR 4 WK BEGINNING 1 DAY PRIOR TO CARCINOGEN TREATMENT (STUDY DURATION: 36 WK), Target Tissue: Type of Lesion: LARGE INTESTINE: ADENOMA)?
**A.** 7/14 (50%), 6/15 (40%), 20%, not significant

**Q.** What about the “tumour outcome (control, treated, inhibition, significance)” value (N-BUTYL-N-(4-HYDROXYB, N-BUTYL-N-(4-HYDROXYB, 1% IN DIET FOR 4 WK BEGINNING 1 DAY PRIOR TO CARCINOGEN TREATMENT (STUDY DURATION: 36 WK), Target Tissue: Type of Lesion: LARGE INTESTINE: CARCINOMA) of the same molecule?
**A.** 3/14 (21%), 11/15 (73%), -248%, p<0.01

**Q.** And the “tumour outcome (control, treated, inhibition, significance)” value (N-BUTYL-N-(4-HYDROXYB, N-BUTYL-N-(4-HYDROXYB, 1% IN DIET FOR 4 WK BEGINNING 1 DAY PRIOR TO CARCINOGEN TREATMENT (STUDY DURATION: 36 WK), Target Tissue: Type of Lesion: LUNG: ADENOMA)?
**A.** 6/14 (43%), 2/15 (13%), 70%, not significant

**Q.** And the “tumour outcome (control, treated, inhibition, significance)” value (N-BUTYL-N-(4-HYDROXYB, N-BUTYL-N-(4-HYDROXYB, 1% IN DIET FOR 4 WK BEGINNING 1 DAY PRIOR TO CARCINOGEN TREATMENT (STUDY DURATION: 36 WK), Target Tissue: Type of Lesion: SMALL INTESTINE: ADENOMA)?
**A.** 6/14 (43%), 3/15 (20%), 53%, not significant

**Q.** And the “tumour outcome (control, treated, inhibition, significance)” value (N-BUTYL-N-(4-HYDROXYB, N-BUTYL-N-(4-HYDROXYB, 1% IN DIET FOR 4 WK BEGINNING 1 DAY PRIOR TO CARCINOGEN TREATMENT (STUDY DURATION: 36 WK), Target Tissue: Type of Lesion: SMALL INTESTINE: CARCINOMA)?
**A.** 5/14 (36%), 2/15 (13%), 64%, not significant

**Q.** What about the “tumour outcome (control, treated, inhibition, significance)” value (N-BUTYL-N-(4-HYDROXYB, N-BUTYL-N-(4-HYDROXYB, 1% IN DIET FOR 32 WK BEGINNING POST CARCINOGEN TREATMENT (STUDY DURATION: 36 WK), Target Tissue: Type of Lesion: KIDNEY: ADENOMA) of the same molecule?
**A.** 4/14 (29%), 9/15 (60%), -107%, not significant

**Q.** And the “tumour outcome (control, treated, inhibition, significance)” value (N-BUTYL-N-(4-HYDROXYB, N-BUTYL-N-(4-HYDROXYB, 1% IN DIET FOR 32 WK BEGINNING POST CARCINOGEN TREATMENT (STUDY DURATION: 36 WK), Target Tissue: Type of Lesion: KIDNEY: NEPHROBLASTOMA)?
**A.** 7/14 (50%), 11/15 (73%), -46%, not significant

**Q.** And the “tumour outcome (control, treated, inhibition, significance)” value (N-BUTYL-N-(4-HYDROXYB, N-BUTYL-N-(4-HYDROXYB, 1% IN DIET FOR 32 WK BEGINNING POST CARCINOGEN TREATMENT (STUDY DURATION: 36 WK), Target Tissue: Type of Lesion: LARGE INTESTINE: CARCINOMA)?
**A.** 3/14 (21%), 5/15 (33%), -57%, not significant

**Q.** And the “tumour outcome (control, treated, inhibition, significance)” value (N-BUTYL-N-(4-HYDROXYB, N-BUTYL-N-(4-HYDROXYB, 1% IN DIET FOR 32 WK BEGINNING POST CARCINOGEN TREATMENT (STUDY DURATION: 36 WK), Target Tissue: Type of Lesion: SMALL INTESTINE: ADENOMA)?
**A.** 6/14 (43%), 4/15 (27%), 37%, not significant

**Q.** What about the “tumour outcome (control, treated, inhibition, significance)” value (N-BUTYL-N-(4-HYDROXYB, N-BUTYL-N-(4-HYDROXYB, 1% IN DIET FOR 32 WK BEGINNING POST CARCINOGEN TREATMENT (STUDY DURATION: 36 WK), Target Tissue: Type of Lesion: SMALL INTESTINE: CARCINOMA) of the same molecule?
**A.** 5/14 (36%), 1/15 (7%), 81%, not significant

**Q.** What about the “tumour outcome (control, treated, inhibition, significance)” value (N-BUTYL-N-(4-HYDROXYBU, N-BUTYL-N-(4-HYDROXYBU, 1% IN DIET FOR 32 WK BEGINNING POST CARCINOGEN TREATMENT (STUDY DURATION: 36 WK), Target Tissue: Type of Lesion: LARGE INTESTINE: ADENOMA) of the same molecule?
**A.** 7/14 (50%), 8/15 (53%), -6%, not significant

**Q.** And the “tumour outcome (control, treated, inhibition, significance)” value (N-BUTYL-N-(4-HYDROXYBU, N-BUTYL-N-(4-HYDROXYBU, 1% IN DIET FOR 32 WK BEGINNING POST CARCINOGEN TREATMENT (STUDY DURATION: 36 WK), Target Tissue: Type of Lesion: LUNG: ADENOMA)?
**A.** 6/14 (43%), 3/15 (20%), 53%, p<0.05
